From patent US6391887B1, “3,4-Dihydroquinoline derivatives as nitrogen monoxide synthase (NOS) inhibitors” (Schering Aktiengesellschaft, priority 1998, dated 2002)

Target: bNOS (UniProt P29475)
Assay: bNOS inhibition (method of Bredt and Snyder)
Assay type: biochemical
Description: The NOS-inhibitory action of the compounds of Formula (I) and their physiologically compatible salts can be determined according to the methods by Bredt and Snyder in Proc. Natl. Acad. Sci. USA (1989) 86, 9030-9033.

| IC50 | Structure (SMILES) |
| --- | --- |
| 1.4 µM | NC1=Nc2cc(N3CCOCC3)ccc2C2CCCC12 (centres unmarked) [Example 21, 4-Amino-7-(4-morpholinyl)-2,3,3a,9b-tetrahydro-1H-cyclopenta[c]quinoline] |
| 1.1 µM | COC(=O)CCc1ccc2c(c1)N=C(N)C1CCCC21 (centres unmarked) [Example 22, 4-Amino-7-(methoxycarbonylethyl)-2,3,3a,9b-tetrahydro-1H-cyclopenta[c]quinoline] |
